ChEMBL document CHEMBL4765472, “Tenofovir-Amino Acid Conjugates Act as Polymerase Substrates-Implications for Avoiding Cellular Phosphorylation in the Discovery of Nucleotide Analogues” (J Med Chem, 2021)
Active and inactive are the calls of the source. The rule behind the calls is not given here.

Key:
[1] = test system: Human immunodeficiency virus 1; experiment: Substrate activity at HIV1 reverse transcriptase assessed as incorporation of compound into growing DNA strand at 500 to 1000 uM incubated for 1 hr using primer and template in presence of MgCl2 by gel based nucleotide incorporation assay; conditions: dose 500-1000 µM
[2] = test system: Human immunodeficiency virus 1; experiment: Substrate activity at HIV1 reverse transcriptase assessed as incorporation of compound into growing DNA strand at 500 to 1000 uM incubated for 1 hr using primer and template in presence of MnCl2 by gel based nucleotide incorporation assay; conditions: dose 500-1000 µM
[3] = test system: Human immunodeficiency virus 1; experiment: Inhibition of HIV1 reverse transcriptase assessed as reduction in dsDNA synthesis at 2.5 mM incubated for 1 hr by PicoGreen-based spectrophotometric assay
[4] = test system: Human immunodeficiency virus 1; experiment: Substrate activity at HIV1 reverse transcriptase assessed as incorporation of compound into growing DNA strand at 1 mM incubated for 1 hr using primer and template in presence of MnCl2 by gel based nucleotide incorporation assay
[5] = test system: Human immunodeficiency virus 1; experiment: Substrate activity at HIV1 reverse transcriptase assessed as incorporation of compound into growing DNA strand at 500 uM incubated for 1 hr using primer and template in presence of MgCl2 by gel based nucleotide incorporation assay
[6] = Inhibition of HIV1 reverse transcriptase assessed as reduction in dsDNA synthesis incubated for 1 hr by PicoGreen-based spectrophotometric assay; design: species or system Human immunodeficiency virus 1
[7] = test system: Human immunodeficiency virus 1; experiment: Substrate activity at HIV1 reverse transcriptase assessed as incorporation of compound into growing DNA strand at 500 uM incubated for 1 hr using primer and template in presence of MnCl2 by gel based nucleotide incorporation assay

| Compound | Activity [1] | Activity [2] | inhibition (active/not active) [3] | Activity [4] | Activity [5] | further results |
| --- | --- | --- | --- | --- | --- | --- |
| CSCC[C@H](NP(=O)(O)OC[C@H]1O[C@@H](n2cnc3c(N)ncnc32)C[C@@H]1O)C(=O)O | inactive | inactive | inactive | – | – | – |
| C[C@H](Cn1cnc2c(N)ncnc21)OCP(=O)(O)N[C@@H](Cc1ccccc1)C(=O)O | – | – | inactive | Active | – | – |
| Nc1ncnc2c1ncn2[C@H]1C[C@H](O)[C@@H](COP(=O)(O)O)O1 | – | – | – | – | Active | – |
| C[C@H](Cn1cnc2c(N)ncnc21)OCP(=O)(O)O | – | – | – | – | inactive | – |
| C[C@H](Cn1cnc2c(N)ncnc21)OCP(=O)(O)N[C@@H](Cc1c[nH]cn1)C(=O)O | – | – | inactive | Active | – | – |
| Nc1ncnc2c1ncn2[C@H]1C[C@H](O)[C@@H](COP(=O)(O)N[C@@H](Cc2ccccc2)C(=O)O)O1 | inactive | inactive | inactive | – | – | – |
| CSCC[C@H](NP(=O)(O)CO[C@H](C)Cn1cnc2c(N)ncnc21)C(=O)O | – | – | Active | – | – | IC50 [6]: 146 µM |
| C[C@H](Cn1cnc2c(N)ncnc21)OCP(=O)(O)N[C@@H](CC(=O)O)C(=O)O | – | – | inactive | Active | – | – |

Continued, in another order:

| Activity [1] | Activity [2] | inhibition (active/not active) [3] | Activity [4] | Activity [5] | Compound | further results |
| --- | --- | --- | --- | --- | --- | --- |
| Active | Active | inactive | – | – | Nc1ncnc2c1ncn2[C@H]1C[C@H](O)[C@@H](COP(=O)(O)N[C@@H](CC(=O)O)C(=O)O)O1 | – |
| – | – | inactive | inactive | – | C[C@H](Cn1cnc2c(N)ncnc21)OCP(=O)(O)N[C@@H](CCCNC(=N)N)C(=O)O | – |
| – | – | inactive | – | Active | C[C@H](Cn1cnc2c(N)ncnc21)OCP(=O)(O)N[C@H](CC(=O)O)C(=O)O | – |
| inactive | inactive | inactive | – | – | N=C(N)NCCC[C@H](NP(=O)(O)OC[C@H]1O[C@@H](n2cnc3c(N)ncnc32)C[C@@H]1O)C(=O)O | – |
| – | – | inactive | – | 26.8% | C[C@H](Cn1cnc2c(N)ncnc21)OCP(=O)(O)N[C@@H](CCC(=O)O)C(=O)O | Activity [7]: 40.8% |
